# Experimental data: US20240352066A1, “ANTIMICROBIAL COMPOUNDS AND THE METHOD OF USE” (priority 2021, published 2024)
# Where two headings read alike, the source gives them in different places. Where a SMILES comes first, the peptide text is derived from it. [ ]: non-standard residue; d: D form. N(tridecyl)Gly = CCCCCCCCCCCCCNCC(=O)O; Gly(N-2-aminoethyl) = NCCNCC(=O)O; Gly(N-cHex) = O=C(O)CNC1CCCCC1; Nleu = CC(C)CNCC(=O)O; Nlys = NCCCCNCC(=O)O
# Legend:
# [1] = system: human red blood cells (hRBC); experiment: Hemolytic activity against human red blood cells; type: cell-based; details: for hRBC HC10: Example 2, same donor sample of hRBCs
# Protocol: Hemolytic activity was determined using single donor human red blood cells (hRBC). hRBCs were washed with PBS and centrifuged (1000 RPM; 10 minutes) three times, resuspended in PBS and aliquoted (100 μL) in 96 well plates. 2-fold serial dilutions of 10× peptoid final concentrations in PBS were prepared and added to wells in triplicate. PBS was used as a vehicle control and 1% Triton X-100 as a positive control. Plates were incubated for 1 hour (37° C.; 5% CO2) then centrifuged (1000 RPM; 10 minutes) and supernatant was diluted 1:20 into PBS in a new 96-well plate. Plates were read on a SpectraMax M5 plate reader (Abs. 405 nm). Percent hemolysis was determined by the following equation: […]
# GraFit was used to determine concentrations at 50% hemolytic activity (HC50) and the Hill coefficient (H). Hemolytic activity at 10% (HC10) was then determined by the following equation: […]
# The hemolytic activity of select peptoids was determined as done previously (Green et al. ACS medicinal chemistry letters 12 9, 1470-1477 (2021); Middleton et al. Bioorganic & medicinal chemistry letters 28 22, 3514-3519 (2018)). Selected peptoids were prepared in 2-fold serial dilutions in PBS at the desired concentrations. Human red blood cells (hRBCs, 9 mL) were centrifuged at 1000 rpm for 10 minutes, and the supernatant was removed and discarded. A 10 mL aliquot of PBS was used to resuspend the hRBCs which were centrifuged again at 1000 rpm for 10 minutes. This PBS wash was completed two more times for a total of three washes. A 9 mL aliquot of PBS was added to the hRBCs, and 100 μL of cell solution was added to individual wells of a 96-well plate. Peptoid solutions (11.1 μL) were added to the appropriate wells in triplicate. A vehicle control of PBS and positive control of 1% Triton X-100 were added to wells in triplicate.
# The plate was incubated at 37° C. for 1 hour and centrifuged at 1000 rpm for 10 minutes. For each well, 5 μL of supernatant was transferred to 95 μL of PBS in a new 96-well plate. The absorbance at 405 nm was measured using a SpectraMax M5 Plate Reader, and the percent hemolysis was calculated as follows: […]
# [2] = Mammalian cytotoxicity, MTT, HepG2; type: cell-based, human; details: human, HepG2 hepatocellular carcinoma cells
# In short: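 HepG2 cells (1×10^5 cells/mL, phenol-red-free DMEM, 10% FBS) were exposed to 2-fold dilutions of compound at 1.56–200 μg/mL final, in triplicate, for 72 h at 37 °C, 5% CO2. MTT was added for 3 h and, after DMSO solubilization, absorbance was read at 570 nm. TD50 is the concentration giving a 50% growth reduction versus the water vehicle, reported as the mean of biological replicates ± SD.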
SMILES,hRBC HC10 [1] [µg/mL],CC50 at 72 h [2] [µg/mL],"HC10 hRBC ([1]; Example 1, 10% lysis, 1 hour) [µg/mL]","CC50 at 72 h ([2]; Example 1, 72 hours, MTT, read-out: TD50 HepG2) [µg/mL]"
CCCCCCCCCCCCCNCC(=O)N(CC(=O)N(CCCCN)CC(=O)N(CCN)CC(=O)N(CC(N)=O)CC(C)C)CC(C)C [Compound 9] (H-[N(tridecyl)Gly][Nleu][Nlys][Gly(N-2-aminoethyl)][Nleu]-NH2),130 ± 45,167 ± 75,–,–
"CCCCCCCCCCCCCNCC(=O)N(CC(=O)N(CCCCN)CC(=O)N(CCN)CC(=O)N(CC(N)=O)C1CCCCC1)C1CCCCC1 [RMG8-8, Ntri-Ncha-Nlys-Nae-Ncha] (H-[N(tridecyl)Gly][Gly(N-cHex)][Nlys][Gly(N-2-aminoethyl)][Gly(N-cHex)]-NH2)",75 ± 31,–,77,189 ± 43
